The text below walks through data of patent US6730675B2 (AstraZeneca AB, priority 1999, dated 2004).

The structures appear in SMILES notation.

In experiment [1] the target is T1, NMDA receptor glycine site (Rattus norvegicus, UniProt P35439).
T1 construct: The rat brain membranes used in the experiments were obtained from Analytical Biological Services Inc; tissue Analytical Biological Services Inc; host or cells: rat brain membranes (cerebral cortex and hippocampus, male Sprague Dawley rats)
The experiment in a line: Test A: Inhibition of binding of [3H]-MDL105,519 to brain membranes. The following applies: displacement of 1.2 nM [3H]MDL105,519, brain membranes. The text has this:
Test A: Inhibition of Binding of [^3H]-MDL105,519:
Binding of compounds to the NMDA receptor glycine site may be assessed by measuring the ability of test compounds to inhibit the binding of tritiated MDL105,519 to brain membranes bearing the receptor.
Briefly, fresh brain tissue including cerebral cortex and hippocampus from male Sprague Dawley rats was homogenized in 0.32 M sucrose and centrifuged at low speed to separate cellular membranes from other cellular components. The membranes were then washed 3 times using deionized water, followed by treatment with 0.04% Triton X-100. Finally, membranes were washed six times in 50 mM Tris citrate buffer, pH 7.4, and frozen at −80° C. until use.
[^3H]MDL105,519 (72 Ci/mmol) was purchased from Amersham. Cold MDL105,519 was purchased from Sigma/RBI. Binding assays were performed substantially in accordance with the protocol of B. M. Baron et al., J. Phannacol. […] On the day of the experiment, brain membranes were thawed at room temperature and suspended in 50 mM tris acetate buffer, pH 7.4 (“TAB”). Seventy-five micro grams per milliliter protein (by using the BioRad dye) were used for competition binding. The experiments were carried out using 96-well plates. […] Non specific binding was determined by using 100 μM of unlabeled MDL105,519. […] After incubation, unbound [^3H]MDL105,519 was removed by filtration onto GF/B Unifilter plates using a Packard harvester. Filters were washed four times with ice cold TAB (total of 1.2 mL buffer). The plates were dried overnight at room temperature and bound radioactivity was measured on a Packard TopCount after the addition of 45 μL per well of the MICROSCINT O.
Human Brain Membranes: Human brain membranes were obtained from Analytical Biological Services Inc., and assays were performed as described for rat membranes.
Data analysis: Data was analyzed using a Microsoft Excel spreadsheet and GraphPad Prizm software and potency of compounds is expressed as the Ki (nM).

Experiment [2] has as its system CCI rats (thermal hyperalgesia). Nature of the experiment: Test C: Neuropathic pain model (Chronic Constriction Injury), thermal hyperalgesia paw-withdrawal test. The following applies: oral. The experiment is classed as in vivo, rat. The text has this:
Test C: Neuropathic Pain Model (Chronic Constriction Injury): […]

The term Ki denotes the equilibrium dissociation constant of an inhibitor or competing ligand from its target. A high value points to weaker binding. The compound `Cc1c(Cn2nc(O)c3[nH]c4cc(Cl)ccc4c(=O)c3c2=O)sc2ccccc12` came in with an inhibition constant Ki in experiment [1] of 0.161 µM.

For the compound `Cc1[nH]cnc1Cn1nc(O)c2nc3cc(Cl)ccc3c(O)c2c1=O`, in experiment [1], the Ki was determined as 0.434 µM.

For the compound `Cc1cc(Cn2nc(O)c3[nH]c4cc(Cl)ccc4c(=O)c3c2=O)c(C)o1` [Ex. 1, 7-Chloro-4-hydroxy-2-[3-(2,5-dimethyl)furanylmethyl]-1,2,5,10-tetrahydropyridazino[4,5-b]quinoline-1,10-dione], in experiment [1], the affinity corresponds to a Ki of 0.0248 µM.

As to `Cc1ccsc1Cn1nc(O)c2[nH]c3cc(Cl)ccc3c(=O)c2c1=O` [Ex. 2, 7-Chloro-4-hydroxy-2-[2-(3-methyl)thienylmethyl]-1,2,5,10-tetrahydropyridazino[4,5-b]quinoline-1,10-dione], the “Test C % Inh. (percent decrease of hyperalgesia) at MED” value in experiment [2] (at the MED, compared to vehicle-treated animals) was −15%. Besides, the “Test C MED (minimum effective dose)” value in experiment [2] (three times daily for 5 days, dose giving statistically significant decrease in hyperalgesia) worked out at 30 mg/kg/day.

`Cc1occc1Cn1nc(O)c2[nH]c3cc(Cl)ccc3c(=O)c2c1=O` [Ex. 4, 7-Chloro-4-hydroxy-2-[(2-methyl(furan-3-yl))methyl]-1,2,5,10-tetrahydropyridazinol[4,5-b]quinonline-1,10-dione] displayed a Ki in experiment [1] of 0.028 µM.

`O=c1c2ccc(Cl)cc2[nH]c2c(O)nn(Cc3ccc(-c4ccccc4Cl)o3)c(=O)c12` [Ex. 6, 7-Chloro-4-hydroxy-2-{[5-(2-chlorophenyl)(2-furyl)]methyl}-1,2,5,10-tetrahydropyridazino[4,5-b]quinoline-1,2-dione] yielded a Ki in experiment [1] of 0.298 µM.

Take `COC(=O)c1ccc(Cn2nc(O)c3[nH]c4cc(Cl)ccc4c(=O)c3c2=O)o1` [Ex. 8, 7-Chloro-4-hydroxy-2-(5-methoxycarbonyl(furan-2-yl)methyl)-1,2,5,10-tetrahydropyirdazino[4,5-b]quinolin-1,10-dione]: affinity in experiment [1] was put at a Ki of 0.072 µM. Compared with the last compound, the Ki is about 4.1-fold lower.

The compound `Cc1ccc(Cn2nc(O)c3[nH]c4cc(Cl)ccc4c(=O)c3c2=O)s1` [Ex. 9, 7-Chloro-4-hydroxy-2-(5-methylthien-2-ylmethyl)-1,2,5,10-tetrahydropyridazino[4,5-b]quinoline-1,10-dione] returned a Ki in experiment [1] of 0.028 µM. Compared with the last compound, the Ki is about 2.6-fold lower.
